Here are results for 5 molecules from patent US7691887B2, “Triazole derivatives which are SMO antagonists” (Merck Sharp & Dohme Corp., priority 2007, dated 2010).

In this experiment the test system is Hh pathway (Smo) in Shh-Light II cells. Description: Shh-Light II Reporter Assay (firefly/Renilla luciferase). As to conditions: Mus musculus; for IC50: 3 uM Purmorphamine stimulation, 30 hrs. The format is cell-based. The protocol: Shh-Light II Reporter Assay
Assay designed to measure firefly and Renilla luciferase, in the same well.
Prior to assay the Shh-Light II cells (ATCC Catalog No. CRL-2795) were cultured in growth media
Day −1: seed 60,000 Shh-Light II cells in assay medium 75 uL/well, in presence of DMSO/inhibitor.
Day 0: after overnight incubation at 37° C. 10% CO2 add 3 uM of Purmorphamine (Calbiochem 540220) in water.
Day 1: After 30 hrs at 37° C. 10% CO2 of incubation develop the assay, directly to cells in growth medium. • Add 75 μl of DualGlow Luciferase Reagent (Promega, E2940) • Incubate 10 min. in the dark • Read plate at Luminometer: TopCount, by PerkinElmer • Add 75 ul of DualGlow Stop & Glow • Incubate 10 min. in the dark • Read plate at Luminometer: TopCount, by PerkinElmer. • Output is the ratio between FireFly/Renilla counts Growth Media: For Growth:
DMEM: Dulbecco's Mod Eagle Medium with 0.11 G/L Pyr, with Pyridoxine. (GIBCO Cat No: 41966-029). The medium has complemented with 10% FCS (fetal bovine serum), 1% Penicillin-Streptomycin (10 mg/ml) (GIBCO, 15140-114) and 1% L-Glutamine 200 mM (100×) (GIBCO, 3042190) and 0.4 mg/ml of G418 (Roche) and 0.15 mg/ml Zeocyne (Invitrogen R-250-01). Cells cultured at 10% CO2.
DMEM: Dulbecco's Mod Eagle Medium with 0.11 G/L Pyr, with Pyridoxine. (GIBCO Cat No: 21063-045), without Phenol Red. The medium has complemented with 2% FCS (fetal bovine serum), 1% Penicillin-Streptomycin (10 mg/ml) (GIBCO, 15140-114) and 1% L-Glutamine 200mM (100×) (GIBCO, 3042190). Cells cultured at 10% CO2. DMSO 0.25%.
A general note: Reporter assays use an easily measured gene product as a stand-in for the process of interest.

Broadly, the IC50 is the midpoint of a concentration-inhibition curve. Low readings indicate higher potency, high ones lower potency. As usually defined, the inhibition is the share of the control response that was lost under treatment. High values mean a response far below the control, low ones a response near the control.

In turn, `Cn1c(-c2ccccc2C(F)(F)F)nnc1C12CCC(c3noc(C(C)(C)F)n3)(CC1)CC2` [Example 3, 5-(1-Fluoro-1-methylethyl)-3-(4-{4-methyl-5-[2-(trifluoromethyl)phenyl]-4H-1,2,4-triazol-3-yl}bicyclo[2.2.2]oct-1-yl)-1,2,4-oxadiazole] came in with an IC50 of 4.2 µM. In other words, the single-digit micromolar range.

In the case of `Cn1c(-c2ccccc2C(F)(F)F)nnc1C12CCC(c3nnc(C(C)(F)F)o3)(CC1)CC2` [Example 4, 2-(1,1-Difluoroethyl)-5-(4-{4-methyl-5-[2-(trifluoromethyl)phenyl]-4H-1,2,4-triazol-3-yl}bicyclo[2.2.2]oct-1-yl)-1,3,4-oxadiazole], the IC50 stood at 9.3 µM.

As to `Cn1c(-c2ccccc2C(F)(F)F)nnc1C12CCC(c3noc(C4CC(F)(F)C4)n3)(CC1)CC2` [Example 2, 5-(3,3-Difluorocyclobutyl)-3-(4-{4-methyl-5-[2-(trifluoromethyl)phenyl]-4H-1,2,4-triazol-3-yl}bicyclo[2.2.2]oct-1-yl)-1,2,4-oxadiazole], the IC50 stood at 1.4 µM.

Consider `Cn1c(-c2ccccc2C(F)(F)F)nnc1C12CCC(c3noc(C(C)(F)F)n3)(CC1)CC2` [Example 1, 5-(1,1-Difluoroethyl)-3-(4-{4-methyl-5-[2-(trifluoromethyl)phenyl]-4H-1,2,4-triazol-3-yl}bicyclo[2.2.2]oct-1-yl)-1,2,4-oxadiazole], for which the inhibition at 5 µM (5 μM compound) stood at 35%.

`Cn1c(-c2ccccc2C(F)(F)F)nnc1C12CCC(c3nnc(C4CC(F)(F)C4)o3)(CC1)CC2` [Example 5, 2-(3,3-Difluorocyclobutyl)-5-(4-{4-methyl-5-[2-(trifluoromethyl)phenyl]-4H-1,2,4-triazol-3-yl}bicyclo[2.2.2]oct-1-yl)-1,3,4-oxadiazole] came in with an IC50 of 2 µM.
